IC50 data for 19 molecules are collected here from patent US9573961B2, “Inhibitors of the renal outer medullary potassium channel” (Merck Sharp & Dohme Corp., priority 2012, dated 2017).

Molecules are shown by their SMILES.

One may read the IC50 as the concentration that inhibits the measured activity by half.

Chain of Kir1.1 (ROMK1) (P48048 whole entry): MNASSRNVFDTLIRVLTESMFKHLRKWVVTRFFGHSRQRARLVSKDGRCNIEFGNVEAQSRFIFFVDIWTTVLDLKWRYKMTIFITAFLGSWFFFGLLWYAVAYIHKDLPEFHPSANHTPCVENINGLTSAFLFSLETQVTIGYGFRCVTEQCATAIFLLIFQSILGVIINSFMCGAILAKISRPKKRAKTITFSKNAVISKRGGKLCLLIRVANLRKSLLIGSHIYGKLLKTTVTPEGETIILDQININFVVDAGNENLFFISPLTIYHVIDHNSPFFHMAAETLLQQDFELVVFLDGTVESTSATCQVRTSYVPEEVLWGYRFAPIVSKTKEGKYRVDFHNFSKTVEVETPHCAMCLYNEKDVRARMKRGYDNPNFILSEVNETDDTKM

The target of one experiment is hROMK (hKir1.1) (Homo sapiens (Human), UniProt P48048). In words: Thallium Flux Assay (ROMK channel functional thallium flux, FLIPR-Tetra). The format is cell-based. Particulars: HEK293 cells stably expressing hROMK (hKir1.1); read-out: Thallium Flux IC50. The method, then: Cell Culture Conditions—HEK293 cells stably expressing hROMK (hKir1.1) were grown at 37° C. in a 10% CO2 humidified incubator in complete growth media: Dulbecco's Modified Eagle Medium supplemented with non-essential amino acids, Penicillin/Streptomycin/Glutamine, G418 and FBS. At >80% confluency, aspirate the media from the flask and rinse with 10 mL Calcium/Magnesium-free PBS. […] To dislodge the cell, gently bang the side of the flask with your hand. Triturate the cells completely and then transfer the cells to 25 mL complete media. Centrifuge at 1,500 rpm for 6 min followed by resuspension in complete growth media and determine cell concentration. […] Under ideal growth conditions and appropriate tissue culture practices, this cell line is stable for 40-45 passages.
Chain of hROMK (hKir1.1) (P48048 whole entry): as above
FluxOR Kit Components (Invitrogen F10017) • FluxOR™ Reagent (Component A) • FluxOR™ Assay Buffer (Component B)—10× Concentrate • PowerLoad™ Concentrate (Component C)—100× Concentrate • Probenecid (Component D)—Lyophilized sample is kept at −20° C. Water soluble, 100× after solubilization in 1 mL water. […] Store at 4° C. • Thallium sulfate (Tl2SO4) Concentrate (Component G)—50 mM in water. Store at 4° C. • DMSO (dimethyl sulfoxide, Component H)—1 mL (100%)
Can be stored at room temperature • Stimulant Buffer (prepared at 5× final concentration in 1× FluxOR™ Chloride-Free Buffer): 7.5 mM Thallium sulfate and 0.75 mM Potassium sulfate (to give a final assay concentration of 3 mM Thallium/0.3 mM Potassium). Store at 4° C. when not in use. If kept sterile, this solution is good for months.
Assay Protocol—The ROMK channel functional thallium flux assay is performed in 384 wells, using the FLIPR-Tetra instrument. HEK-hKir1.1 cells are seeded in Poly-D-Lysine microplates and kept in a 37° C.-10% CO2 incubator overnight. On the day of the experiment, the growth media is replaced with the FluxOR™ reagent loading buffer and incubated, protected from light, at ambient temperature (23-25° C.) for 90 min. The loading buffer is replaced with assay buffer±test compound followed by 30 min incubation at ambient temperature, where the Thallium/Potassium stimulant is added to the microplate.
Step Protocol • 1. Seed HEK-hKir1.1 cells (50 μl at 20,000 cells/well) in 384-well PDL coated Microplates • 2. Allow cells to adhere overnight in humidified 37° C./10% CO2 incubator • 3. Completely remove cell growth media from microplate and replace with 25 μl loading buffer • 4. Incubate Microplate at room temperature, protected form light, for 90 min • 5. Remove loading buffer and replace with 25 μl 1× Assay Buffer±test compound. • 6. Incubate microplate at room temperature, protected from light, for 30 min • 7. […] Excitation=400 nm, Emission=460 & 580 nm. Collect data for ˜10 min.
Data Calculation—The fluorescence intensity of wells containing 3 μM of a standard control ROMK inhibitor of the present invention is used to define the ROMK-sensitive component of thallium flux. Fluorescence in the presence of test compounds is normalized to control values to provide % fluorescence change.
As to `Cc1c([C@@H]2CN3CCN(C(=O)Cc4cccc(-n5cnnn5)c4)C[C@@H]3CO2)ccc(F)c1C#N` [Example 56, 6-fluoro-2-methyl-3-[(3R,9aR)-8-{[3-(1H-tetrazol-1-yl)phenyl]acetyl}octahydropyrazino[2,1-c][1,4]oxazin-3-yl]benzonitrile], the IC50 amounted to 200 nM.

Take `Cc1c(C#N)cccc1[C@H]1CN2CCN(C(=O)Cc3ccc(-n4cnnn4)cc3)C[C@H]2CO1` [Example 43, 2-methyl-3-[(3S,9aS)-8-{[4-(1H-tetrazol-1-yl)phenyl]acetyl}octahydropyrazino[2,1-c][1,4]oxazin-3-yl]benzonitrile]: the IC50 was 140 nM.

As for `Cc1c([C@H]2CN3CCN(C(=O)Cc4ccc(-n5cnnn5)cc4)C[C@H]3CO2)ccc(Cl)c1C#N` [Example 35, 6-chloro-2-methyl-3-[(3S,9aS)-8-{[4-(1H-tetrazol-1-yl)phenyl]acetyl}octahydropyrazino[2,1-c][1,4]oxazin-3-yl]benzonitrile], the IC50 came to 760 nM.

With `Cc1c([C@@H]2CN3CCN(C(=O)CCc4cccc(-n5cnnn5)c4)C[C@H]3CO2)ccc(F)c1C#N` [Example 72, 6-fluoro-2-methyl-3-[(3R,9aS)-8-{3-[3-(1H-tetrazol-1-yl)phenyl]propanoyl}octahydropyrazino[2,1-c][1,4]oxazin-3-yl]benzonitrile], the IC50 amounted to 270 nM.

With `Cc1c([C@H]2CN3CCN(C(=O)CCc4cccc(-n5cnnn5)c4)CC3CO2)ccc(F)c1C#N` (stereo in doubt) [Example 73, 6-fluoro-2-methyl-3-[(3S,9aS)-8-{3-[3-(1H-tetrazol-1-yl)phenyl]propanoyl}octahydropyrazino[2,1-c][1,4]oxazin-3-yl]benzonitrile], the IC50 was 140 nM.

For `Cc1c([C@H]2CN3CCN(C(=O)CCc4cccc(-n5cnnn5)c4)C[C@H]3CO2)ccc2c1COC2=O` [Example 71, 4-methyl-5-[(3S,9aS)-8-{3-[3-(1H-tetrazol-1-yl)phenyl]propanoyl}octahydropyrazino[2,1-c][1,4]oxazin-3-yl]-2-benzofuran-1(3H)-one], the IC50 stood at 490 nM.

The next experiment deals with Kir1.1 (ROMK1) (Homo sapiens (Human), UniProt P48048). In words: Electrophysiology Assay (whole cell voltage clamp, IonWorks Quattro). The format is cell-based. The note with it: Chinese hamster ovary cells stably expressing Kir1.1; block during voltage step to 0 mV; read-out: Electrophysiology IC50. The method, then:
Chinese hamster ovary cells stably expressing Kir1.1 channels were maintained in T-75 flasks in cell culture media in a humidified 10% CO2 incubator at 37° C. Prior to an experiment, Kir1.1 expression was induced by overnight incubation with 1 mM sodium butyrate. […] After centrifugation, the cell pellet was resuspended in approximately 4.0 mL of bath solution and placed in the IonWorks instrument. The intracellular solution consisted of (in mM): 80 K gluconate, 40 KCl, 20 KF, 3.2 MgCl2, 3 EGTA, 5 Hepes, pH 7.4. Electrical access to the cytoplasm was achieved by perforation in 0.13 mg/mL amphotericin B for 4 min. […] Voltage protocols and current recordings were performed using the IonWorks HT software/hardware system. Currents were sampled at 1 kHz. No correction for liquid junction potentials was used. The test pulse, consisting of a 100 ms step to 0 mV from a holding potential of −70 mV, followed by a 100 ms voltage ramp from −70 mV to +70 mV, was applied before and after a 6 min compound incubation period. Test compounds were prepared by diluting DMSO stock solutions into the bath solution at 3× the final concentration and placed in the instrument in 96-well polypropylene plates. Current amplitudes were measured using the IonWorks software.
As to `Cc1c([C@@H]2CN3CCN(C(=O)Cc4cccc(-n5cnnn5)c4)C[C@@H]3CO2)ccc(F)c1C#N` [Example 56, 6-fluoro-2-methyl-3-[(3R,9aR)-8-{[3-(1H-tetrazol-1-yl)phenyl]acetyl}octahydropyrazino[2,1-c][1,4]oxazin-3-yl]benzonitrile], the IC50 is 60 nM.

Regarding `Cc1c([C@H]2CN3CCN(C(=O)C4Cc5ccc(-n6cnnn6)cc5C4)C[C@H]3CO2)ccc(F)c1C#N` (stereo partly drawn) [Example 74, 6-fluoro-2-methyl-3-[(3S,9aS)-8-{[5-(1H-tetrazol-1-yl)-2,3-dihydro-1H-inden-2-yl]carbonyl}octahydropyrazino[2,1-c][1,4]oxazin-3-yl]benzonitrile], the IC50 was found to be 160 nM.

In the case of `Cc1c(C#N)cccc1[C@H]1CN2CCN(C(=O)Cc3ccc(-n4cnnn4)cc3)C[C@H]2CO1` [Example 43, 2-methyl-3-[(3S,9aS)-8-{[4-(1H-tetrazol-1-yl)phenyl]acetyl}octahydropyrazino[2,1-c][1,4]oxazin-3-yl]benzonitrile], the IC50 came to 170 nM.

`O=C1OCc2cc([C@@H]3CN4CCN(C(=O)C5CCc6cc(-n7cnnn7)ccc65)C[C@H]4CO3)ccc21` (stereo partly drawn) [Example 12, 5-[(3R,9aS)-8-{[5-(1H-tetrazol-1-yl)-2,3-dihydro-1H-inden-1-yl]carbonyl}octahydropyrazino[2,1-c][1,4]oxazin-3-yl]-2-benzofuran-1(3H)-one]: the IC50 came out at 250 nM.

`N#Cc1cc([C@H]2CN3CCN(C(=O)C4CCc5cc(-n6cnnn6)ccc54)C[C@H]3CO2)ccc1F` (stereo partly drawn) [Example 3, 2-fluoro-5-[(3S,9aS)-8-{[5-(1H-tetrazol-1-yl)-2,3-dihydro-1H-inden-1-yl]carbonyl}octahydropyrazino[2,1-c][1,4]oxazin-3-yl]benzonitrile]: the IC50 stood at 180 nM.

Consider `N#Cc1cc([C@@H]2CN3CCN(C(=O)C4CCc5cc(-n6cnnn6)ccc54)C[C@H]3CO2)ccc1F` (stereo partly drawn) [Example 4, 2-fluoro-5-[(3R,9aS)-8-{[5-(1H-tetrazol-1-yl)-2,3-dihydro-1H-inden-1-yl]carbonyl}octahydropyrazino[2,1-c][1,4]oxazin-3-yl]benzonitrile], for which the IC50 amounted to 190 nM.

As to `O=C1OCc2cc([C@H]3CN4CCN(C(=O)C5CCc6cc(-n7cnnn7)ccc65)C[C@H]4CO3)ccc21` (stereo partly drawn) [Example 11, 5-[(3S,9aS)-8-{[5-(1H-tetrazol-1-yl)-2,3-dihydro-1H-inden-1-yl]carbonyl}octahydropyrazino[2,1-c][1,4]oxazin-3-yl]-2-benzofuran-1(3H)-one], the IC50 worked out at 340 nM.

As for `O=C1OCc2cc([C@H]3CN4CCN(C(=O)Cc5ccc(-n6cnnn6)cc5)C[C@H]4CO3)ccc21` [Example 7, 5-[(3S,9aS)-8-{[4-(1H-tetrazol-1-yl)phenyl]acetyl}octahydropyrazino[2,1-c][1,4]oxazin-3-yl]-2-benzofuran-1(3H)-one], the IC50 was 170 nM.

For `COc1cc(CC(=O)N2CCN3C[C@H](c4ccc5c(c4)COC5=O)OC[C@@H]3C2)c(F)cc1C#N` [Example 9, 5-fluoro-2-methoxy-4-{2-oxo-2-[(3S,9aS)-3-(1-oxo-1,3-dihydro-2-benzofuran-5-yl)hexahydropyrazino[2,1-c][1,4]oxazin-8(1H)-yl]ethyl}benzonitrile], the IC50 worked out at 140 nM.

In the case of `COc1cc(CC(=O)N2CCN3C[C@@H](c4ccc5c(c4C)COC5=O)OC[C@@H]3C2)c(F)cc1C#N` [Example 17, 5-fluoro-2-methoxy-4-{2-[(3R,9aS)-3-(4-methyl-1-oxo-1,3-dihydro-2-benzofuran-5-yl)hexahydropyrazino[2,1-c][1,4]oxazin-8(1H)-yl]-2-oxoethyl}benzonitrile], the IC50 was found to be 160 nM.

`O=C1OCc2cc([C@@H]3CN4CCN(C(=O)Cc5ccc(-n6cnnn6)cc5)C[C@H]4CO3)ccc21` [Example 8, 5-[(3R,9aS)-8-{[4-(1H-tetrazol-1-yl)phenyl]acetyl}octahydropyrazino[2,1-c][1,4]oxazin-3-yl]-2-benzofuran-1(3H)-one]: the half-maximal inhibitory concentration (IC50) was found to be 140 nM.

For the molecule `COc1cc(CC(=O)N2CCN3C[C@H](c4ccc5c(c4C)COC5=O)OC[C@@H]3C2)c(F)cc1C#N` [Example 16, 5-fluoro-2-methoxy-4-{2-[(3S,9aS)-3-(4-methyl-1-oxo-1,3-dihydro-2-benzofuran-5-yl)hexahydropyrazino[2,1-c][1,4]oxazin-8(1H)-yl]-2-oxoethyl}benzonitrile], the IC50 was determined as 180 nM.

Staying with this experiment, now noted: Electrophysiology IC50, Chinese hamster ovary cells stably expressing Kir1.1; block during voltage step to 0 mV.
In turn, `Cc1c([C@H]2CN3CCN(C(=O)Cc4ccc(-n5cnnn5)cc4)C[C@H]3CO2)ccc(Cl)c1C#N` [Example 35, 6-chloro-2-methyl-3-[(3S,9aS)-8-{[4-(1H-tetrazol-1-yl)phenyl]acetyl}octahydropyrazino[2,1-c][1,4]oxazin-3-yl]benzonitrile] registered an IC50 of 260 nM.

The molecule `N#Cc1cc([C@@H]2CN3CCN(C(=O)Cc4cc(F)c(C#N)cc4F)C[C@H]3CO2)ccc1F` [Example 5, 4-{2-[(3R,9aS)-3-(3-cyano-4-fluorophenyl)hexahydropyrazino[2,1-c][1,4]oxazin-8(1H)-yl]-2-oxoethyl}-2,5-difluorobenzonitrile] registered an IC50 of 120 nM.

Consider `Cc1c([C@H]2CN3CCN(C(=O)Cc4ccc(-n5cnnn5)cc4)C[C@H]3CO2)ccc2c1COC2=O` [Example 1B, 4-methyl-5-[(3S,9aS)-8-{[4-(1H-tetrazol-1-yl)phenyl]acetyl}octahydropyrazino[2,1-c][1,4]oxazin-3-yl]-2-benzofuran-1(3H)-one], for which the IC50 worked out at 330 nM.

The molecule `COc1cc(CC(=O)N2CCN3C[C@@H](c4ccc(F)c(C#N)c4)OC[C@@H]3C2)ccc1C#N` [Example 6] came in with an IC50 of 160 nM.
